These results are taken from ChEMBL document CHEMBL6120986, “In silico inspired design of urea noscapine congeners as anticancer agents: Chemical synthesis and experimental evaluation using breast cancer cells and a xenograft mouse model” (Eur J Med Chem, 2025).

Data set [1] is described as follows: Toxicity in female BALB/c athymic mouse assessed as RBC count at 150 mg/kg/day, po (reference value: 5.84 +/- 0.30 10^6/uL). It counts as organism-based. As to conditions: in vivo.
Data set [2] deals with MDA-MB-231. Nature of the data set: Induction of intracellular ROS generation in human MDA-MB-231 cells assessed as increase in fluorescence intensity at 6.56 uM incubated for 48 hrs by H2DCFDA fluorescence assay. Type of data set: functional, cell-based.
Data set [3] in a line: Toxicity in BALB/c athymic mouse assessed as effect on glomeruli morphology at 150 mg/kg, po by Hematoxylin and eosin staining based analysis. It counts as organism-based. As to conditions: in vivo.
In a further data set the test system is MCF7. Nature of the data set: Antitumor activity against human MCF7 cells xenografted in BALB/c athymic mouse assessed as reduction in tumor volume at 150 mg/kg, po administrated for 30 days (reference value: 1.63 cm^3). Type of data set: functional. The note with it: time 30 day.
Data set [4] is described as follows: Binding affinity in goat brain tubulin assessed as equilibrium dissociation constant incubated for 45 mins by fluorescence titration method. Also on record: species or system Capra hircus.
Data set [5] can be described thus: Toxicity in female BALB/c athymic mouse assessed as albumin level at 150 mg/kg/day, po (reference value: 6.31 +/- 0.41 g/dl). Type of data set: organism-based. The note with it: in vivo.
A short description of data set [6]: Toxicity in female BALB/c athymic mouse assessed as glucose level at 150 mg/kg/day, po (reference value: 98.47 +/- 3.29 mg/dl). The note with it: in vivo. Type of data set: organism-based.
The subject of a further data set is Mitochondrial membrane. Briefly: Induction of mitochondrial membrane potential loss in human MDA-MB-231 cells assessed as increase in blue fluorescence incubated for 48 hrs by […] staining based fluorescence microscopic analysis. It counts as cell membranes.
A short description of data set [7]: Toxicity in BALB/c athymic mouse assessed as effect on distal tubules morphology at 150 mg/kg, po by Hematoxylin and eosin staining based analysis. Type of data set: organism-based. The note with it: in vivo.
For data set [8], the system named is MDA-MB-231. Briefly: Induction of apoptosis in human MDA-MB-231 cells assessed as early apoptotic cells at 6.56 uM incubated for 72 hrs by Annexin/FITC based FACS analysis (reference value: 2%). It counts as functional.
Data set [9] can be described thus: Toxicity in female BALB/c athymic mouse assessed as ALK PHOS level at 150 mg/kg/day, po (reference value: 78.59 +/- 5.85 U/L). Type of data set: organism-based. As to conditions: in vivo.
Data set [10] is described as follows: Toxicity in female BALB/c athymic mouse assessed as hematocrit at 150 mg/kg/day, po (reference value: 41.34 +/- 0.30 %). Type of data set: organism-based. The note with it: in vivo.
A short description of data set [11]: Toxicity in BALB/c athymic mouse assessed as effect on proximal tubules morphology at 150 mg/kg, po by Hematoxylin and eosin staining based analysis. Type of data set: organism-based. As to conditions: in vivo.
Data set [12] concerns MDA-MB-231. Briefly: Induction of apoptosis in human MDA-MB-231 cells assessed as membrane blebbing at 6.65 uM (IC50) measured after 72 hrs by fluorescence microscopic analysis. Type of data set: functional, cell-based.
The nature of data set [13]: Toxicity in female BALB/c athymic mouse assessed as ALT level at 150 mg/kg/day, po (reference value: 29.79 +/- 3.15 U/L). The note with it: in vivo. It counts as organism-based.
A short description of data set [14]: Cytotoxicty against HEK cells incubated for 72 hrs by SRB assay. Type of data set: toxicity, cell-based. The note with it: human. A general note: The SRB assay estimates cell density from bound dye.
A short description of data set [15]: Toxicity in female BALB/c athymic mouse assessed as mean corpuscular hemoglobin measured per cell at 150 mg/kg/day, po (reference value: 28.62 +/- 0.08 pg/cell). Type of data set: organism-based. The note with it: in vivo.

The structures appear in SMILES notation. Activity calls are given as the source filed them. The calls are words filed in the database; no cut-off is given here.

The Kd is the equilibrium constant for the complex coming apart. Broadly, the IC50 is the concentration at which inhibition is half-maximal. As to `COc1ccc2c(c1OC)C(=O)O[C@@H]2[C@H]1c2c(c(NC(=O)Nc3ccc(Cl)cc3Cl)c3c(c2OC)OCO3)CCN1C`, the Activity in data set [1] was 6.29 10^6 /uL; in data set [3] it was “Non-toxic”; with MCF7, 0.34 cm3; in data set [5] it was 6.19 g/dL; in [6], 98.37 mg/dL; in data set [7], “Non-toxic”. Also, the Activity with MDA-MB-231 [8] is recorded as 22%; in [9], 78.45 U/L; in data set [10] it was 39.29%; in [11] it was “Non-toxic”; in data set [13], 28.62 U/L; in data set [15] it was 29.7 pg. The result with MDA-MB-231 [2], with Mitochondrial membrane and with MDA-MB-231 [12] was Active. Besides, the Kd in data set [4] was determined as 42 µM. In data set [14], this molecule gave an IC50 at 72 h of 338 µM.
